Where a name gives a salt, the structure may show the parent alone.
Molecular target: T1, NHE-1 (Homo sapiens, UniProt P19634)
T1 construct: NHE-1 isoform which is predominantly present in human platelets; endogenous in cells; host or cells: human platelets (platelet rich plasma from blood of healthy volunteers)
Experiment: Primary screening assay in human platelets (acidified human platelet swelling assay)
Type: cell-based
Conditions: concentration required to inhibit 50% of NHE-1 activity in isolated human platelets; mean of three readings, PRP from three donors
Protocol: Experiments on inhibition of NHE in human platelets are based on those published in (Cardiovasc. Res. 29: 260-268, (1995), J. Med. Chem. 41, 3736-3747, (1998)) Blood (150 mL) collected in a siliconized glass bottle from healthy volunteers was treated with aqueous acid citrate dextrose (ACD) solution (25 mL) [composition: citric acid (38 mM/L), glucose (136 mM/L) and trisodium citrate (75 mM/L)] and immediately centrifuged at 200 g for 20 min. The platelet rich plasma (PRP) was separated and a platelet count carried out using a Beckman Coulter A^c T® cell counter. The cell count was adjusted to 3×10^8 platelets/mL using platelet free plasma.
Activation of Na^+/H^+ exchanger by intracellular acidification: 150 μL of PRP was added to 750 μL of propionate buffer [composition: KCl (5 mM/L), CaCl2 (1 mM/L), MgCl2 (1 mM/L), glucose (10 mM/L), HEPES (20 mM/L), sodium propionate (140 mM/L)] of pH 6.6, in a cuvette. Optical density was recorded at 630 nm using a Shimadzu spectrophotometer (UV 1601). The micromolar concentrations of a few representative compounds required to inhibit 50% of NHE-1 activity (IC50), in isolated human platelets (acidified human platelet swelling assay) is shown in Table 2. IC50 values are the mean of three experimental readings using PRP isolated from the blood of three different donors.

T1 sequence (P19634 whole entry, canonical isoform): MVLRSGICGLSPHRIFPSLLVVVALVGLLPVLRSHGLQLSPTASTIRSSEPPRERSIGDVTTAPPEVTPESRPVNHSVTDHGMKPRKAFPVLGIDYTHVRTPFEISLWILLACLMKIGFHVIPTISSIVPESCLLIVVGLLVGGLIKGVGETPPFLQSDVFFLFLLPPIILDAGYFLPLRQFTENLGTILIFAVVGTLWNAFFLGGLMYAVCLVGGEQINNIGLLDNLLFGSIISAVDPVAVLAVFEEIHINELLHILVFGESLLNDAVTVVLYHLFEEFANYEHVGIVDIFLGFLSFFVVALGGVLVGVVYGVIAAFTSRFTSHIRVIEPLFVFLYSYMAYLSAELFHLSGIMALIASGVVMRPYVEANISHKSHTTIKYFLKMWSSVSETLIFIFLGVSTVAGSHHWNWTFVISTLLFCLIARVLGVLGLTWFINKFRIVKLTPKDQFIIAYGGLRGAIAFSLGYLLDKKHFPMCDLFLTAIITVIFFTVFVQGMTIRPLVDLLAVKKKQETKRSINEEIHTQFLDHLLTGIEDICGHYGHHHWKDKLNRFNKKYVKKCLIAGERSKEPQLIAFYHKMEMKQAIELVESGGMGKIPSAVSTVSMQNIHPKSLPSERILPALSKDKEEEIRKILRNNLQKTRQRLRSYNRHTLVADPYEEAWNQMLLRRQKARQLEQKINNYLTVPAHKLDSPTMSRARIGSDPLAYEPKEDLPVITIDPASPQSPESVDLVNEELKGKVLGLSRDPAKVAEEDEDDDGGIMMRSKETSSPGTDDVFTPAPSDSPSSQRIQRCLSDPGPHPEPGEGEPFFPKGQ

Row | SMILES | IC50 [nM]
1 | Cc1cc(C(=O)N=C(N)N)cc2c1Oc1c(Cl)cc(NCCn3ccnc3)cc1CS2(=O)=O [Example 64, N-[4-Chloro-2-(2-imidazol-1-yl-ethylamino)-6-methyl-10,10-dioxo-10,11-dihydro-5-oxa-10lambda*6*-thia-dibenzo[a,d]cycloheptene-8-carbonyl]-guanidine dimesylate] | 28
2 | Cc1cc(C(=O)N=C(N)N)cc2c1Oc1c(cccc1C(C)C)CS2(=O)=O [Example 31, N-(4-Isopropyl-6-methyl-10,10-dioxo-10,11-dihydro-5-oxa-10lambda*6*-thia-dibenzo[a,d]cycloheptene-8-carbonyl)-guanidine, methane sulfonic acid salt] | 200
3 | Cc1cc2c(cc1C(=O)N=C(N)N)S(=O)(=O)Cc1ccccc1O2 [Example 27, N-(7-Methyl-10,10-dioxo-10,11-dihydro-5-oxa-10lambda*6*-thia-dibenzo[a,d]cycloheptene-8-carbonyl)-guanidine, methane sulfonic acid salt] | 100
4 | Cc1cc(C(=O)N=C(N)N)cc2c1Oc1c(Cl)cc(N3CCN(C4CC4)CC3=O)cc1CS2(=O)=O [Example 58, N-[4-Chloro-2-(4-cyclopropyl-2-oxo-piperazin-1-yl)-6-methyl-10,10-dioxo-10,11-dihydro-5-oxa-10lambda*6*-thia-dibenzo[a,d]cycloheptene-8-carbonyl]-guanidine dimesylate] | 87
5 | Cc1cc(N)cc2c1Oc1c(Cl)cc(C(=O)N=C(N)N)cc1S(=O)(=O)C2 [Example 48, N-(2-Amino-6-chloro-4-methyl-10,10-dioxo-10,11-dihydro-5-oxa-10lambda*6*-thia-dibenzo[a,d]cycloheptene-8-carbonyl)-guanidine, methane sulfonic acid salt] | 40
6 | Cc1cc(C(=O)N=C(N)N)cc2c1Oc1c(Cl)cc(S(=O)(=O)NCc3cccnc3)cc1CS2(=O)=O [Example 52, 4-Chloro-8-guanidinocarbonyl-6-methyl-10,10-dioxo-10,11-dihydro-5-oxa-10lambda*6*-thia-dibenzo[a,d]cycloheptene-2-sulfonic acid (pyridin-3-ylmethyl)-amide dimesylate] | 80
7 | Cc1cc(C(=O)N=C(N)N)cc2c1Oc1c(Cl)cc(N3CCN(Cc4ccccc4)CC3)cc1CS2(=O)=O [Example 118, N-[2-(4-Benzyl-piperazin-1-yl)-4-chloro-6-methyl-10,10-dioxo-10,11-dihydro-5-oxa-10lambda*6*-thia-dibenzo[a,d]cycloheptene-8-carbonyl]-guanidine dimesylate] | 100

More lines, now with the values ahead:

Row | IC50 [nM] | SMILES
8 | 30 | Cc1cc(C(=O)N=C(N)N)cc2c1Oc1c(Cl)cc(CN)cc1CS2(=O)=O [Example 198, N-(2-Aminomethyl-4-chloro-6-methyl-10,10-dioxo-10,11-dihydro-5-oxa-10lambda*6*-thia-dibenzo[a.d]cycloheptene-8-carbonyl)-guanidine trimesylate]
9 | 100 | Cc1cc2c(cc1C(=O)N=C(N)N)S(=O)(=O)Cc1ccccc1N2 [Example 183, N-(7-Methyl-10,10-dioxo-10,11-dihydro-5H-10lambda*6*-thia-5-aza-dibenzo[a.d]cycloheptene-8-carbonyl)-guanidine, methane sulfonic acid salt]
10 | 200 | Cc1cc(C(=O)N=C(N)N)cc2c1N(C)c1c(Cl)cccc1C(C)S2(=O)=O (stereo not shown) [Example 194, N-(4-Chloro-5,6,11-trimethyl-10,10-dioxo-10,11-dihydro-5H-10lambda*6*-thia-5-aza-dibenzo[a.d]cycloheptene-8-carbonyl)-guanidine, methane sulfonic acid salt]
11 | 32 | CCN(CCN1CCCC1)c1cc(Cl)c2c(c1)CS(=O)(=O)c1cc(C(=O)N=C(N)N)cc(C)c1O2 [Example 73, N-{4-Chloro-2-[ethyl-(2-pyrrolidin-1-yl-ethyl)-amino]-6-methyl-10,10-dioxo-10,11-dihydro-5-oxa-10lambda*6*-thia-dibenzo[a,d]cycloheptene-8-carbonyl}-guanidine dimesylate]
12 | 20 | Cc1cc(C(=O)N=C(N)N)cc2c1Oc1c(Cl)cc(N)cc1CS2(=O)=O [Example 35, N-(2-Amino-4-chloro-6-methyl-10,10-dioxo-10,11-dihydro-5-oxa-10lambda*6*-thia-dibenzo[a,d]cycloheptene-8-carbonyl)-guanidine, methane sulfonic acid salt]
13 | 70 | NC(N)=NC(=O)c1cc(Cl)c2c(c1)S(=O)(=O)Cc1cccc(Cl)c1O2 [Example 45, 4,6-Dichloro-10,10-dioxo-10,11-dihydro-5-oxa-10lambda*6*-thia-dibenzo[a,d]cycloheptene-8-carbonylguanidine, methane sulfonic acid salt]

Source: patent US8183234B2, “Tricyclic guanidine derivatives as sodium-proton exchange inhibitors” (Piramal Life Sciences Limited, priority 2004, dated 2012)
